Reference: US9427458B2, “Methods for inhibiting cancer cell proliferation” (Consejo Nacional de Investigaciones Cientificas y Tecnicas, …, priority 2010, dated 2016)
“Also recorded” adds a separate entry of the source.

Assays:
cyclin D1 = assay: Cyclin D1 protein levels by Western blot in C4HD cells; assay type: cell-based, mouse; conditions: C4HD cells preincubated or transfected, then MPA for 48 h
Description: (§1) Primary cultures of epithelial cells from C4HD tumors were performed as described (2). T47D cells were obtained from American Type Culture Collection and T47D-Y cells were a generous gift from Dr. K. Horwitz (Denver, Colo.). To evaluate the effects of the pharmacological inhibitors on MPA-induced proteins phosphorylation or cyclin D1 expression, cells were preincubated for 90 min with RU486, PP2, Tyrphostin AG825 or Jak inhibitor I before addition of MPA. Cell proliferation was evaluated by [3H]-thymidine incorporation assay and cell cycle distribution was analyzed by flow cytometry, as described (22).
(§2) Lysates were prepared from cells subjected to the different treatments and proteins were subjected to SDS-PAGE as previously described (21). Membranes were immunoblotted with the antibodies detailed in each experiment. When phospho(p)-protein antibodies were used, filters were reprobed with total protein antibodies. Signal intensities of pErbB-2, pStat3, pSrc, pPR, pJak1, and pJak2 bands were analyzed by densitometry and normalized to total protein bands. Similarly, signal intensities of PR, cyclin D1, Stat3, and ErbB-2 bands were normalized to actin or β tubulin bands. […] The NEPER Nuclear and Cytoplasmic Extraction Reagents technique (Pierce Biotechnology) was performed as per manufacturer's instructions. […]

Stat3 [1] = assay: Stat3 phosphorylation and nuclear translocation in C4HD cells; assay type: cell-based, mouse
Description: (§3) Lysates were prepared from cells subjected to the different treatments and proteins were subjected to SDS-PAGE as previously described (21). Membranes were immunoblotted with the antibodies detailed in each experiment. When phospho(p)-protein antibodies were used, filters were reprobed with total protein antibodies. Signal intensities of pErbB-2, pStat3, pSrc, pPR, pJak1, and pJak2 bands were analyzed by densitometry and normalized to total protein bands. Similarly, signal intensities of PR, cyclin D1, Stat3, and ErbB-2 bands were normalized to actin or β tubulin bands. […] The NEPER Nuclear and Cytoplasmic Extraction Reagents technique (Pierce Biotechnology) was performed as per manufacturer's instructions. Nuclear association between ErbB-2 and Stat3 was studied by performing coimmunoprecipitation experiments using 200 μg of nuclear protein lysates as described (22).
siRNAs targeting ErbB-2, Stat3, and Pr were synthesized by Dharmacon, Inc (Lafayatte, Colo.) (ErbB-2siRNA: 5′GAUGGUGCUUACUCAUUGA3′ (SEQ ID NO:8), designed to specifically knockdown mouse ErbB2 but not human ErbB-2; Stat3siRNA: 5′[…]3′ (SEQ ID NO:9) targets mouse Stat3; and 5′[…]3′ (SEQ ID NO:10) targets human Stat3; PRsiRNA: 5′[…]3′(SEQ ID NO:11)). […] Transfection of siRNAs duplexes was performed by using the DharmaFECT transfection reagent following the manufacturer's direction for 3 days. For reconstitution experiments cotransfection of 25 nM ErbB-2 siRNA with 2 μg expression vectors was performed using DharmaFECT Duo transfection reagent (Dharmacon).
(§4) Cells grown on glass coverslips were fixed and permeabilized in ice-cold methanol and were then blocked with PBS 1% BSA. ErbB-2 was localized using either a rabbit polyclonal (C-18) or a mouse monoclonal (F-11) ErbB-2 antibody (Santa Cruz Biotechnology) and Stat3 was detected using a mouse monoclonal antibody (124H6, Cell Signaling), followed by incubation with a goat anti-rabbit IgG-Alexa 488 (Molecular Probes, Eugene, Oreg.) secondary antibody for ErbB-2 (C-18) and with a rhodamine conjugated goat anti-mouse secondary antibody (Jackson ImmunoResearch Laboratories, West Grove, Pa.) for both ErbB2 (F-11) and Stat3. Negative controls were carried out using PBS instead of primary antibodies, or 5× competitive peptide (Santa Cruz Biotechnology) when ErbB-2 (C-18) was used. When cells were transfected with hErbB-2ΔNLS, green fluorescent protein from this expression vector was visualized by direct fluorescence imaging. […] FIGS. 2A, 3B and C, illustrate a few cells representative of the ones examined. Cells were analyzed using a Nikon Eclipse E800 confocal laser microscopy system (22).

cyclin D1 promoter = assay: Human cyclin D1 promoter luciferase reporter in C4HD cells; assay type: cell-based, mouse
Excerpt: The luciferase reporter plasmid downstream the cyclin D1 human promoter region (−1745 cyclin D1-luc), and constructs truncated at positions −963, −261, −141, were kindly provided by Dr. R. Pestell (Northwestern University Medical School, Chicago, Ill.). These constructs were generated by truncation of the 1745-bp length promoter in order to sequentially exclude 5′ regions of the promoter. The −963 cyclin D1-luc construct excludes one GAS site (−984), the −261 cyclin D1-luc excludes three GAS sites (−984, −568 and −475) and the −141 cyclin D1-luc excludes four GAS sites (−984, −568, −475 and −239). The empty vector pA3 Luc was also provided by Dr. R. Pestell. The luciferase reporter plasmid containing four copies of the m67 high-affinity binding site (p4×m67-tk-luc) and the pTATA-tk-Luc reporter lacking the m67 insertion were a gift from Dr J. Darnell (The Rockefeller University, New York, N.Y.). The Renilla luciferase expression plasmid RLCMV was obtained from Promega (Madison, Wis.). Dominant negative Stat3 expression vector, Stat3Y705-F, which carries a tyrosine to phenylalanine substitution at codon 705 that reduces phosphorylation on tyrosine of the wild-type Stat3 protein, therefore inhibiting both dimerization and DNA binding of Stat3 (6,7,16) was kindly provided by Dr J. Darnell (New York, USA). The empty pcDNA3.1 vector was also a gift of Dr J. Darnell. Human wild-type ErbB-2 expression vector (hErbB-2WT) as well as the empty pMe18SM vector were a gift from by Dr. T. Yamamoto (University of Tokyo, Japan) (1). The GFP-tagged human ErbB-2 mutant which lacks the putative nuclear localization signal sequence (aa 676-KRRQQKIRKYTMRR-689) (SEQ ID NO:3), resulting in the sequence of KLM at the deletion junction (hErbB-2ΔNLS), was generously provided by Dr. M. C. Hung (The University of Texas M.D. Anderson Cancer Center, Houston, Tex.) (Giri et al., 2005). The empty pEGFP-N1 vector was obtained from BD Biosciences Clontech (Palo Alto, Calif.). The plasmid encoding the human wild-type hPR-B was kindly provided by Dr. K. Horwitz. In experiments assessing MPA capacity to induce the transcriptional activation of Stat3, C4HD and T47D cells were transiently transfected for 48 h with 1 μg of −1745 cyclin D1-luc reporter plasmid or the truncated −963, −261 and −141 constructs, or with 1 μg p4×m67-tk-luc and 10 ng of RL-CMV used to correct variations in transfection efficiency. As control, cells were transfected with 1 μg of either the pA3 Luc or pTATA-tk-Luc reporters. Cells were cotransfected with 2 μg of Stat3Y705-F when indicated. Total amount of transfected DNA was standardized by adding the empty pcDNA3.1 vector. […] Triplicate samples were analyzed for each datum point. Differences between experimental groups were analyzed by ANOVA followed by Tukey test between groups.

Stat3 [2] = assay: m67 Stat3 binding site luciferase reporter in T47D cells; assay type: cell-based, human; conditions: cotransfection
Excerpt: (§5) The luciferase reporter plasmid downstream the cyclin D1 human promoter region (−1745 cyclin D1-luc), and constructs truncated at positions −963, −261, −141, were kindly provided by Dr. R. Pestell (Northwestern University Medical School, Chicago, Ill.). These constructs were generated by truncation of the 1745-bp length promoter in order to sequentially exclude 5′ regions of the promoter. The −963 cyclin D1-luc construct excludes one GAS site (−984), the −261 cyclin D1-luc excludes three GAS sites (−984, −568 and −475) and the −141 cyclin D1-luc excludes four GAS sites (−984, −568, −475 and −239). The empty vector pA3 Luc was also provided by Dr. R. Pestell. The luciferase reporter plasmid containing four copies of the m67 high-affinity binding site (p4×m67-tk-luc) and the pTATA-tk-Luc reporter lacking the m67 insertion were a gift from Dr J. Darnell (The Rockefeller University, New York, N.Y.). The Renilla luciferase expression plasmid RLCMV was obtained from Promega (Madison, Wis.). […] Triplicate samples were analyzed for each datum point. Differences between experimental groups were analyzed by ANOVA followed by Tukey test between groups.

Stat3 [3] = assay: m67 Stat3 binding site luciferase reporter in C4HD cells; assay type: cell-based, mouse; conditions: cotransfection
Excerpt: as §5

Stat3 [4] = assay: Stat3 phosphorylation and nuclear translocation in T47D cells; assay type: cell-based, human; conditions: T47D cells pretreated with inhibitor before MPA
Description: as §3, §4

ErbB-2 [5] = assay: ErbB-2 tyrosine phosphorylation by Western blot in C4HD cells; assay type: cell-based, mouse; conditions: C4HD cells preincubated with inhibitor or transfected with siRNA before MPA
Description: as §1, §2

ErbB-2 [6] = assay: ErbB-2 tyrosine phosphorylation by Western blot in T47D cells; assay type: cell-based, human; conditions: T47D cells preincubated with inhibitor before MPA
Description: as §1, §3

ErbB-2 [7] = assay: ErbB-2 cellular localization (subcellular fractionation/immunoblot, confocal microscopy) in C4HD cells; assay type: cell-based, mouse; conditions: C4HD cells pretreated with inhibitor before MPA
Description: (§6) Lysates were prepared from cells subjected to the different treatments and proteins were subjected to SDS-PAGE as previously described (21). Membranes were immunoblotted with the antibodies detailed in each experiment. When phospho(p)-protein antibodies were used, filters were reprobed with total protein antibodies. Signal intensities of pErbB-2, pStat3, pSrc, pPR, pJak1, and pJak2 bands were analyzed by densitometry and normalized to total protein bands. Similarly, signal intensities of PR, cyclin D1, Stat3, and ErbB-2 bands were normalized to actin or β tubulin bands. […]
(§7) Cells grown on glass coverslips were fixed and permeabilized in ice-cold methanol and were then blocked with PBS 1% BSA. ErbB-2 was localized using either a rabbit polyclonal (C-18) or a mouse monoclonal (F-11) ErbB-2 antibody (Santa Cruz Biotechnology) and Stat3 was detected using a mouse monoclonal antibody (124H6, Cell Signaling), followed by incubation with a goat anti-rabbit IgG-Alexa 488 (Molecular Probes, Eugene, Oreg.) secondary antibody for ErbB-2 (C-18) and with a rhodamine conjugated goat anti-mouse secondary antibody (Jackson ImmunoResearch Laboratories, West Grove, Pa.) for both ErbB2 (F-11) and Stat3. […] When cells were transfected with hErbB-2ΔNLS, green fluorescent protein from this expression vector was visualized by direct fluorescence imaging. […]

ErbB-2 [8] = assay: ErbB-2 cellular localization (subcellular fractionation/immunoblot, confocal microscopy) in T47D cells; assay type: cell-based, human; conditions: T47D cells pretreated with inhibitor before MPA
Description: as §6, §7

Molecule: 5′GGUCAAAUUUCCUGAGUUGUU3′ (other strand missing, further chemistry not given here) [Stat3 siRNAs, siRNA that targets mouse Stat3]
- MPA-induced cyclin D1 protein levels (cyclin D1): abrogated

Molecule: hErbB-2WT: Human wild-type ErbB-2 expression vector
- Stat3 Tyr705 phosphorylation upon MPA stimulation (Stat3 [1]; Transfected C4HD cells versus wild-type C4HD cells also stimulated with MPA): higher levels
- basal levels of Stat3 transcriptional activity (cyclin D1 promoter; absence of MPA): did not modulate
- MPA-induced cyclin D1 promoter activation (cyclin D1 promoter; pretreatment or cotransfection, MPA 24 h): significantly enhanced
- MPA-induced Stat3 transcriptional activation (m67 reporter) (Stat3 [2]): significantly enhanced
- MPA-induced Stat3 transcriptional activation (m67 reporter) (Stat3 [3]): significantly enhanced

Molecule: COc1cc(/C=C(\C#N)C(N)=O)cc(CSc2nc3ccccc3s2)c1O [AG825]
- MPA-induced Stat3 nuclear migration (Stat3 [4]): absolutely prevented
- MPA-induced Stat3 nuclear migration (Stat3 [1]; C4HD cells pretreated with inhibitor before MPA): absolutely prevented
- MPA-induced ErbB-2 phosphorylation (ErbB-2 [5]): prevented
- MPA-induced ErbB-2 phosphorylation (ErbB-2 [6]): prevented
- MPA-induced ErbB-2 nuclear translocation (ErbB-2 [7]): abrogated; also recorded: significantly inhibited
- MPA-induced ErbB-2 nuclear translocation (ErbB-2 [8]): abrogated; also recorded: significantly inhibited
